Laboratory results: patent US6355799B1, “Substituted benzene compounds, process for their preparation, and herbicidal and defoliant compositions containing them” (ISK Americas Incorporated, priority 1997, dated 2002)

Experiments:
Assay type in all cases: in vivo
[1] = system: field corn (Zea mays L., var. Dekalb 535, CORN); test: Post-emerge test, crop safety; conditions: post-emerge, 14 days after application, rating scale 0-100
Procedure, shortened: (§1)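 Applied at 15–1000 g ai/ha from acetone in 187 l/ha spray volume. Post-emergence applications included 0.25% v/v non-ionic surfactant and reached plants sown 8–21 days before. Pre-emergence applications were incorporated by surface watering. Efficacy or crop damage was rated on a 0–100 scale after 14 days.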

[2] = system: upland rice (Oryza sp., var. Tebonnet, RICE); test: Post-emerge test, crop safety; conditions: post-emerge, 14 days after application, rating scale 0-100
Procedure, shortened: as §1

[3] = system: large crabgrass (Digitaria sanguinalis, DIGSA); test: Pre-emerge test, greenhouse herbicide activity screening; conditions: pre-emerge, 14 days after application, scale 0-100
Procedure, shortened: as §1

[4] = system: green foxtail (Setaria viridis, SETVI); test: as above; conditions: pre-emerge, 14 days after application, scale 0-100
Procedure, shortened: as §1

[5] = system: velvetleaf (Abutilon theophrasti, ABUTH); test: as above; conditions: pre-emerge, 14 days after application, scale 0-100
Procedure, shortened: as §1

[6] = system: lambsquarters (Chenopodium album, CHEAL); test: as above; conditions: pre-emerge, 14 days after application, scale 0-100
Procedure, shortened: as §1

[7] = system: barnyardgrass (Echinochloa crus-galli, ECHCG); test: as above; conditions: pre-emerge, 14 days after application, scale 0-100
Procedure, shortened: as §1

[8] = system: sicklepod (Cassia obtusifolia, CASOB); test: as above; conditions: pre-emerge, 14 days after application, scale 0-100
Procedure, shortened: as §1

[9] = system: ivyleaf morningglory (Ipomoea hederacea, IPOHE); test: as above; conditions: pre-emerge, 14 days after application, scale 0-100
Procedure, shortened: as §1

[10] = system: johnsongrass (Sorghum halepense, SORHA); test: as above; conditions: pre-emerge, 14 days after application, scale 0-100
Procedure, shortened: as §1

[11] = system: large crabgrass (Digitaria sanguinalis, DIGSA); test: Post-emerge test, greenhouse herbicide activity screening; conditions: post-emerge, 14 days after application, rating scale 0-100
Procedure, shortened: (§2)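 Fourteen days after spraying, crop and weed injury was graded visually from 0, no effect, to 100, every plant dead. Test substances were dissolved in acetone and applied at 15–1000 g ai/ha with a flat-fan nozzle. Application was either pre-emergence, one day after sowing, or post-emergence at the 2–3 leaf stage.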

[12] = system: green foxtail (Setaria viridis, SETVI); test: as above; conditions: post-emerge, 14 days after application, rating scale 0-100
Procedure, shortened: as §2

[13] = system: velvetleaf (Abutilon theophrasti, ABUTH); test: as above; conditions: post-emerge, 14 days after application, rating scale 0-100
Procedure, shortened: as §2

[14] = system: lambsquarters (Chenopodium album, CHEAL); test: as above; conditions: post-emerge, 14 days after application, rating scale 0-100
Procedure, shortened: as §2

[15] = system: barnyardgrass (Echinochloa crus-galli, ECHCG); test: as above; conditions: post-emerge, 14 days after application, rating scale 0-100
Procedure, shortened: as §2

[16] = system: sicklepod (Cassia obtusifolia, CASOB); test: as above; conditions: post-emerge, 14 days after application, rating scale 0-100
Procedure, shortened: as §2

[17] = system: ivyleaf morningglory (Ipomoea hederacea, IPOHE); test: as above; conditions: post-emerge, 14 days after application, rating scale 0-100
Procedure, shortened: as §2

[18] = system: redroot pigweed (Amaranthus retroflexus, AMARE); test: as above; conditions: post-emerge, 14 days after application, rating scale 0-100
Procedure, shortened: as §2

[19] = system: johnsongrass (Sorghum halepense, SORHA); test: as above; conditions: post-emerge, 14 days after application, rating scale 0-100
Procedure, shortened: as §2

[20] = system: field corn (Zea mays L., var. Dekalb 535, CORN); test: Pre-emerge test, crop safety; conditions: pre-emerge, 14 days after application, scale 0-100
Procedure, shortened: (§3)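 Rating: 0–100 visual injury, 14 DAA. Application: acetone, 187 l/ha, 15–1000 g ai/ha, flat-fan track sprayer with nozzle 40–45 cm above soil or canopy. Post-emerge runs used 0.25% v/v surfactant on 2–3 leaf plants.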

[21] = system: upland rice (Oryza sp., var. Tebonnet, RICE); test: Pre-emerge test, crop safety; conditions: pre-emerge, 14 days after application, scale 0-100
Procedure, shortened: as §3

[22] = system: redroot pigweed (Amaranthus retroflexus, AMARE); test: Pre-emerge test, greenhouse herbicide activity screening; conditions: pre-emerge, 14 days after application, scale 0-100
Procedure, shortened: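 Compounds in acetone were track-sprayed at 187 l/ha, 15–1000 g ai/ha, onto sandy loam pots. Pre-emerge seeds were sown one day before spraying, with surface watering afterwards. Post-emerge plants were at the 2–3 leaf stage and sprayed with 0.25% v/v non-ionic surfactant. Injury was rated 0–100 at 14 days.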

COc1c(Cl)cc(F)c(-n2c(=O)cc(C(F)(F)F)n(C)c2=O)c1NC(=O)c1ccc2ccccc2c1OC [2-153]
CORN phytotoxicity rating (crop damage) ([1]; 63 g ai/ha): 5 | CORN phytotoxicity rating (crop damage) ([1]; 250 g ai/ha): 5 | RICE phytotoxicity rating (crop damage) ([2]; 63 g ai/ha): 0 | RICE phytotoxicity rating (crop damage) ([2]; 250 g ai/ha): 10 | phytotoxicity rating DIGSA ([3]; 63 g ai/ha): 0 | phytotoxicity rating DIGSA ([3]; 250 g ai/ha): 40 | phytotoxicity rating SETVI ([4]; 63 g ai/ha): 30 | phytotoxicity rating SETVI ([4]; 250 g ai/ha): 90 | phytotoxicity rating ABUTH ([5]; 63 g ai/ha): 20 | phytotoxicity rating ABUTH ([5]; 250 g ai/ha): 50 | phytotoxicity rating CHEAL ([6]; 63 g ai/ha): 70 | phytotoxicity rating CHEAL ([6]; 250 g ai/ha): 90 | phytotoxicity rating ECHCG ([7]; 63 g ai/ha): 0 | phytotoxicity rating ECHCG ([7]; 250 g ai/ha): 0 | phytotoxicity rating CASOB ([8]; 63 g ai/ha): 0 | phytotoxicity rating CASOB ([8]; 250 g ai/ha): 0 | phytotoxicity rating IPOHE ([9]; 63 g ai/ha): 0 | phytotoxicity rating IPOHE ([9]; 250 g ai/ha): 0 | phytotoxicity rating SORHA ([10]; 63 g ai/ha): 10 | phytotoxicity rating SORHA ([10]; 250 g ai/ha): 0 | DIGSA phytotoxicity rating ([11]; 63 g ai/ha): 0 | DIGSA phytotoxicity rating ([11]; 250 g ai/ha): 10 | SETVI phytotoxicity rating ([12]; 63 g ai/ha): 20 | SETVI phytotoxicity rating ([12]; 250 g ai/ha): 30 | ABUTH phytotoxicity rating ([13]; 63 g ai/ha): 95 | ABUTH phytotoxicity rating ([13]; 250 g ai/ha): 100 | CHEAL phytotoxicity rating ([14]; 63 g ai/ha): 80 | CHEAL phytotoxicity rating ([14]; 250 g ai/ha): 95 | ECHCG phytotoxicity rating ([15]; 63 g ai/ha): 10 | ECHCG phytotoxicity rating ([15]; 250 g ai/ha): 20 | CASOB phytotoxicity rating ([16]; 63 g ai/ha): 0 | CASOB phytotoxicity rating ([16]; 250 g ai/ha): 30 | IPOHE phytotoxicity rating ([17]; 63 g ai/ha): 100 | IPOHE phytotoxicity rating ([17]; 250 g ai/ha): 95 | AMARE phytotoxicity rating ([18]; 63 g ai/ha): 60 | AMARE phytotoxicity rating ([18]; 250 g ai/ha): 90 | SORHA phytotoxicity rating ([19]; 63 g ai/ha): 0 | SORHA phytotoxicity rating ([19]; 250 g ai/ha): 20 | phytotoxicity rating CORN (crop damage) ([20]; 63 g ai/ha): 0 | phytotoxicity rating CORN (crop damage) ([20]; 250 g ai/ha): 0 | phytotoxicity rating RICE (crop damage) ([21]; 63 g ai/ha): 0 | phytotoxicity rating RICE (crop damage) ([21]; 250 g ai/ha): 20 | phytotoxicity rating AMARE ([22]; 63 g ai/ha): 100 | phytotoxicity rating AMARE ([22]; 250 g ai/ha): 100

COc1c(Cl)cc(F)c(-n2c(=O)cc(C(F)(F)F)n(C)c2=O)c1NC(=O)c1cc2ccccc2cc1C [2-155]
CORN phytotoxicity rating (crop damage) ([1]; 63 g ai/ha): 70 | CORN phytotoxicity rating (crop damage) ([1]; 125 g ai/ha): 90 | RICE phytotoxicity rating (crop damage) ([2]; 63 g ai/ha): 25 | RICE phytotoxicity rating (crop damage) ([2]; 125 g ai/ha): 80 | phytotoxicity rating DIGSA ([3]; 63 g ai/ha): 85 | phytotoxicity rating DIGSA ([3]; 125 g ai/ha): 100 | phytotoxicity rating SETVI ([4]; 63 g ai/ha): 60 | phytotoxicity rating SETVI ([4]; 125 g ai/ha): 95 | phytotoxicity rating ABUTH ([5]; 63 g ai/ha): 100 | phytotoxicity rating ABUTH ([5]; 125 g ai/ha): 100 | phytotoxicity rating CHEAL ([6]; 63 g ai/ha): 100 | phytotoxicity rating CHEAL ([6]; 125 g ai/ha): 100 | phytotoxicity rating ECHCG ([7]; 63 g ai/ha): 50 | phytotoxicity rating ECHCG ([7]; 125 g ai/ha): 70 | phytotoxicity rating CASOB ([8]; 63 g ai/ha): 0 | phytotoxicity rating CASOB ([8]; 125 g ai/ha): 30 | phytotoxicity rating IPOHE ([9]; 63 g ai/ha): 0 | phytotoxicity rating IPOHE ([9]; 125 g ai/ha): 40 | phytotoxicity rating SORHA ([10]; 63 g ai/ha): 30 | phytotoxicity rating SORHA ([10]; 125 g ai/ha): 70 | DIGSA phytotoxicity rating ([11]; 63 g ai/ha): 40 | DIGSA phytotoxicity rating ([11]; 125 g ai/ha): 50 | SETVI phytotoxicity rating ([12]; 63 g ai/ha): 50 | SETVI phytotoxicity rating ([12]; 125 g ai/ha): 70 | ABUTH phytotoxicity rating ([13]; 63 g ai/ha): 100 | ABUTH phytotoxicity rating ([13]; 125 g ai/ha): 100 | CHEAL phytotoxicity rating ([14]; 63 g ai/ha): 100 | CHEAL phytotoxicity rating ([14]; 125 g ai/ha): 100 | ECHCG phytotoxicity rating ([15]; 63 g ai/ha): 30 | ECHCG phytotoxicity rating ([15]; 125 g ai/ha): 60 | CASOB phytotoxicity rating ([16]; 63 g ai/ha): 100 | CASOB phytotoxicity rating ([16]; 125 g ai/ha): 100 | IPOHE phytotoxicity rating ([17]; 63 g ai/ha): 100 | IPOHE phytotoxicity rating ([17]; 125 g ai/ha): 100 | AMARE phytotoxicity rating ([18]; 63 g ai/ha): 100 | AMARE phytotoxicity rating ([18]; 125 g ai/ha): 100 | SORHA phytotoxicity rating ([19]; 63 g ai/ha): 30 | SORHA phytotoxicity rating ([19]; 125 g ai/ha): 50 | phytotoxicity rating CORN (crop damage) ([20]; 63 g ai/ha): 0 | phytotoxicity rating CORN (crop damage) ([20]; 125 g ai/ha): 15 | phytotoxicity rating RICE (crop damage) ([21]; 63 g ai/ha): 30 | phytotoxicity rating RICE (crop damage) ([21]; 125 g ai/ha): 60 | phytotoxicity rating AMARE ([22]; 63 g ai/ha): 100 | phytotoxicity rating AMARE ([22]; 125 g ai/ha): 100
